Experimental data from patent publication US20260215428A1, “WEED CONTROL METHOD” (SYNGENTA CROP PROTECTION AG, priority 2023, published 2026).

Legend:
Format in all cases: in vivo
Settings in all cases: 21 days after application
[1] = system: Sorghum halepense; experiment: Further glasshouse test versus other ACCase-inhibiting herbicides, Table B2-4
Text: (§1) Further tests were employed to test the efficacy of a compound of Formula I versus other ACCase-inhibiting herbicides. The five main targets were Lolium multiflorum, Eleusine indica, Digitaria insularis, Sorghum halepense and Echinochloa crus-galli. Collectively, the populations contained all the major target-site resistance mutations affecting ACCase herbicides. Two L. multiflorum (LM-NTSR-1 and LM-NTSR-2) and one E. crus-galli (ECG-NTSR-1) populations were characterised exclusively by non-target-site resistance (“NTSR”). The target-site resistant L. multiflorum and E. indication populations were 100% homozygous for different ACCase mutations whilst the D. insularis, S. halepense and E. crus-galli samples contained a mixture of homozygous wild and mutant individuals at different genotypic frequencies. Additional underlying NTSR cannot be ruled out in the populations characterised by target-site resistance.
(§2) Around 50 seeds of each of the 24 weed populations were sown in 12-cm pots containing a mixture of peat and compost in a 1:1 ratio. The pots were watered, fertilised and kept in controlled glasshouse conditions set at 24° C./16 hr day, 18° C. night, 65% relative humidity, and a photon flux density of approximately 250 μmol quanta m^−2 s^−1 for Lolium multiflorum. The E. indica, D. insularis, S. halepense and E. crus-galli plants were kept in a separate glasshouse bay characterised by a 17 H photoperiod of 180 μmol m^−2 s^−1 with temperatures of 25° C. day and 19° C. night and 65% relative humidity. When the plants were at the two to four-leaf stage, they were treated with the various ACCase-inhibiting herbicides at 0, 15, 30, 60, 120 and 240 g ai ha^−1 in a spray cabinet mounted with a single mobile Teejet flat fan nozzle (11002VS) calibrated to deliver 200 L ha^−1 at 200 kPa. The L. multiflorum populations were treated by a compound of Formula Ic, clodinafop-propargyl, pinoxaden, cycloxydim and clethodim and the warm season grass weeds E. indica, D. insularis, S. halepense and E. crus-galli were sprayed with a Compound Ic and the commonly employed haloxyfop-methyl and clethodim. Three replicate pots were used per population. Plants were assessed for visual damage compared to the untreated control 21 days after application (0=0% damage; 100=100% damage).

[2] = system: Digitaria insularis; experiment: Further glasshouse test versus other ACCase-inhibiting herbicides, Table B2-3
Text: as §1, §2

[3] = system: Echinochloa Crus-galli; experiment: Further glasshouse test versus other ACCase-inhibiting herbicides, Table B2-5
Text: as §1, §2

[4] = system: Eleusine indica; experiment: Further glasshouse test versus other ACCase-inhibiting herbicides, Table B2-2
Text: as §1, §2

[5] = system: Lolium multiflorum; experiment: Further glasshouse test versus other ACCase-inhibiting herbicides, Table B2-1
Text: as §1, §2

Question: Which visual damage ([1]; biotype Sensitive, 15 g/ha) does the source give for COC(=O)C(C)Oc1ccc(Oc2ncc(C(F)(F)F)cc2Cl)cc1 (stereo not shown) [Haloxyfop-p-methyl, haloxyfop-methyl] here?
Answer: 93%

Question: What about the visual damage ([1]; biotype Sensitive, 30 g/ha) of the same molecule?
Answer: 100%

Question: What about the visual damage ([1]; biotype Sensitive, 60 g/ha) of the same molecule?
Answer: 100%

Question: What about the visual damage ([1]; biotype Sensitive, 120 g/ha) of the same molecule?
Answer: 100%

Question: What about the visual damage ([1]; biotype Sensitive, 240 g/ha) of the same molecule?
Answer: 100%

Question: And the visual damage ([1]; biotype W2027C, 15 g/ha)?
Answer: 38%

Question: And the visual damage ([1]; biotype W2027C, 30 g/ha)?
Answer: 50%

Question: And the visual damage ([1]; biotype W2027C, 60 g/ha)?
Answer: 68%

Question: What about the visual damage ([1]; biotype W2027C, 120 g/ha) of the same molecule?
Answer: 68%

Question: What about the visual damage ([1]; biotype W2027C, 240 g/ha) of the same molecule?
Answer: 78%

Question: What about the visual damage ([2]; biotype Sensitive, 15 g/ha) of the same molecule?
Answer: 100%

Question: And the visual damage ([2]; biotype Sensitive, 30 g/ha)?
Answer: 100%

Question: What about the visual damage ([2]; biotype Sensitive, 60 g/ha) of the same molecule?
Answer: 100%

Question: What about the visual damage ([2]; biotype Sensitive, 120 g/ha) of the same molecule?
Answer: 100%

Question: What about the visual damage ([2]; biotype Sensitive, 240 g/ha) of the same molecule?
Answer: 100%

Question: What about the visual damage ([2]; biotype W2027C, 15 g/ha) of the same molecule?
Answer: 76%

Question: What about the visual damage ([2]; biotype W2027C, 30 g/ha) of the same molecule?
Answer: 53%

Question: What about the visual damage ([2]; biotype W2027C, 60 g/ha) of the same molecule?
Answer: 93%

Question: What about the visual damage ([2]; biotype W2027C, 120 g/ha) of the same molecule?
Answer: 100%

Question: And the visual damage ([2]; biotype W2027C, 240 g/ha)?
Answer: 100%

Question: What about the visual damage ([3]; biotype Sensitive, 15 g/ha) of the same molecule?
Answer: 100%

Question: And the visual damage ([3]; biotype Sensitive, 30 g/ha)?
Answer: 100%

Question: And the visual damage ([3]; biotype Sensitive, 60 g/ha)?
Answer: 100%

Question: And the visual damage ([3]; biotype Sensitive, 120 g/ha)?
Answer: 100%

Question: And the visual damage ([3]; biotype Sensitive, 240 g/ha)?
Answer: 100%

Question: And the visual damage ([3]; biotype W2027C, 15 g/ha)?
Answer: 3%

Question: And the visual damage ([3]; biotype W2027C, 30 g/ha)?
Answer: 75%

Question: And the visual damage ([3]; biotype W2027C, 60 g/ha)?
Answer: 73%

Question: And the visual damage ([3]; biotype W2027C, 120 g/ha)?
Answer: 100%

Question: What about the visual damage ([3]; biotype W2027C, 240 g/ha) of the same molecule?
Answer: 100%

Question: And the visual damage ([3]; population ECG-NTSR-1 (non-target-site resistance), 15 g/ha)?
Answer: 73%

Question: What about the visual damage ([3]; population ECG-NTSR-1 (non-target-site resistance), 30 g/ha) of the same molecule?
Answer: 87%

Question: And the visual damage ([3]; population ECG-NTSR-1 (non-target-site resistance), 60 g/ha)?
Answer: 100%

Question: And the visual damage ([3]; population ECG-NTSR-1 (non-target-site resistance), 120 g/ha)?
Answer: 100%

Question: And the visual damage ([3]; population ECG-NTSR-1 (non-target-site resistance), 240 g/ha)?
Answer: 100%

Question: And the visual damage ([4]; biotype D2078G, 15 g/ha)?
Answer: 0%

Question: What about the visual damage ([4]; biotype D2078G, 30 g/ha) of the same molecule?
Answer: 0%

Question: What about the visual damage ([4]; biotype D2078G, 60 g/ha) of the same molecule?
Answer: 60%

Question: And the visual damage ([4]; biotype D2078G, 120 g/ha)?
Answer: 95%

Question: What about the visual damage ([4]; biotype D2078G, 240 g/ha) of the same molecule?
Answer: 88%

Question: And the visual damage ([4]; biotype G2096A, 15 g/ha)?
Answer: 3%

Question: And the visual damage ([4]; biotype G2096A, 30 g/ha)?
Answer: 3%

Question: And the visual damage ([4]; biotype G2096A, 60 g/ha)?
Answer: 23%

Question: What about the visual damage ([4]; biotype G2096A, 120 g/ha) of the same molecule?
Answer: 30%

Question: And the visual damage ([4]; biotype G2096A, 240 g/ha)?
Answer: 53%

Question: And the visual damage ([4]; biotype I2041N, 15 g/ha)?
Answer: 0%

Question: And the visual damage ([4]; biotype I2041N, 30 g/ha)?
Answer: 7%

Question: And the visual damage ([4]; biotype I2041N, 60 g/ha)?
Answer: 0%

Question: And the visual damage ([4]; biotype I2041N, 120 g/ha)?
Answer: 10%

Question: And the visual damage ([4]; biotype I2041N, 240 g/ha)?
Answer: 0%

Question: And the visual damage ([4]; biotype Sensitive, 15 g/ha)?
Answer: 100%

Question: And the visual damage ([4]; biotype Sensitive, 30 g/ha)?
Answer: 100%

Question: What about the visual damage ([4]; biotype Sensitive, 60 g/ha) of the same molecule?
Answer: 100%

Question: What about the visual damage ([4]; biotype Sensitive, 120 g/ha) of the same molecule?
Answer: 100%

Question: And the visual damage ([4]; biotype Sensitive, 240 g/ha)?
Answer: 100%

Question: And the visual damage ([4]; biotype W2027C, 15 g/ha)?
Answer: 0%

Question: What about the visual damage ([4]; biotype W2027C, 30 g/ha) of the same molecule?
Answer: 0%

Question: And the visual damage ([4]; biotype W2027C, 60 g/ha)?
Answer: 17%

Question: And the visual damage ([4]; biotype W2027C, 120 g/ha)?
Answer: 30%

Question: And the visual damage ([4]; biotype W2027C, 240 g/ha)?
Answer: 33%

Question: How did the visual damage ([5]; biotype C2088R, 15 g/ha) turn out when CCCC(=NOCC)C1=C(O)CC(C2CCCSC2)CC1=O (stereo not shown) [Cycloxydim, cycloxydim] was run?
Answer: 0%

Question: And the visual damage ([5]; biotype C2088R, 30 g/ha)?
Answer: 0%

Question: And the visual damage ([5]; biotype C2088R, 60 g/ha)?
Answer: 0%

Question: And the visual damage ([5]; biotype C2088R, 120 g/ha)?
Answer: 0%

Question: What about the visual damage ([5]; biotype C2088R, 240 g/ha) of the same molecule?
Answer: 0%

Question: What about the visual damage ([5]; biotype D2078G, 15 g/ha) of the same molecule?
Answer: 0%

Question: What about the visual damage ([5]; biotype D2078G, 30 g/ha) of the same molecule?
Answer: 0%

Question: And the visual damage ([5]; biotype D2078G, 60 g/ha)?
Answer: 0%

Question: And the visual damage ([5]; biotype D2078G, 120 g/ha)?
Answer: 3%

Question: And the visual damage ([5]; biotype D2078G, 240 g/ha)?
Answer: 7%

Question: What about the visual damage ([5]; biotype I1781L, 15 g/ha) of the same molecule?
Answer: 0%

Question: What about the visual damage ([5]; biotype I1781L, 30 g/ha) of the same molecule?
Answer: 0%

Question: And the visual damage ([5]; biotype I1781L, 60 g/ha)?
Answer: 7%

Question: And the visual damage ([5]; biotype I1781L, 120 g/ha)?
Answer: 13%

Question: And the visual damage ([5]; biotype I1781L, 240 g/ha)?
Answer: 13%

Question: What about the visual damage ([5]; biotype Sensitive, 15 g/ha) of the same molecule?
Answer: 0%

Question: And the visual damage ([5]; biotype Sensitive, 30 g/ha)?
Answer: 0%

Question: What about the visual damage ([5]; biotype Sensitive, 60 g/ha) of the same molecule?
Answer: 0%

Question: And the visual damage ([5]; biotype Sensitive, 120 g/ha)?
Answer: 88%

Question: What about the visual damage ([5]; biotype Sensitive, 240 g/ha) of the same molecule?
Answer: 100%

Question: And the visual damage ([5]; biotype W1999S, 15 g/ha)?
Answer: 0%

Question: And the visual damage ([5]; biotype W1999S, 30 g/ha)?
Answer: 0%

Question: And the visual damage ([5]; biotype W1999S, 60 g/ha)?
Answer: 0%

Question: What about the visual damage ([5]; biotype W1999S, 120 g/ha) of the same molecule?
Answer: 0%

Question: What about the visual damage ([5]; biotype W1999S, 240 g/ha) of the same molecule?
Answer: 0%

Question: What about the visual damage ([5]; biotype W2027C, 15 g/ha) of the same molecule?
Answer: 0%

Question: And the visual damage ([5]; biotype W2027C, 30 g/ha)?
Answer: 0%

Question: And the visual damage ([5]; biotype W2027C, 60 g/ha)?
Answer: 0%

Question: And the visual damage ([5]; biotype W2027C, 120 g/ha)?
Answer: 0%

Question: What about the visual damage ([5]; biotype W2027C, 240 g/ha) of the same molecule?
Answer: 50%

Question: What about the visual damage ([5]; population LM-NTSR-1 (non-target-site resistance), 15 g/ha) of the same molecule?
Answer: 0%

Question: What about the visual damage ([5]; population LM-NTSR-1 (non-target-site resistance), 30 g/ha) of the same molecule?
Answer: 0%

Question: And the visual damage ([5]; population LM-NTSR-1 (non-target-site resistance), 60 g/ha)?
Answer: 0%

Question: And the visual damage ([5]; population LM-NTSR-1 (non-target-site resistance), 120 g/ha)?
Answer: 3%

Question: And the visual damage ([5]; population LM-NTSR-1 (non-target-site resistance), 240 g/ha)?
Answer: 60%

Question: And the visual damage ([5]; population LM-NTSR-2 (non-target-site resistance), 15 g/ha)?
Answer: 0%

Question: And the visual damage ([5]; population LM-NTSR-2 (non-target-site resistance), 30 g/ha)?
Answer: 0%

Question: And the visual damage ([5]; population LM-NTSR-2 (non-target-site resistance), 60 g/ha)?
Answer: 0%

Question: What about the visual damage ([5]; population LM-NTSR-2 (non-target-site resistance), 120 g/ha) of the same molecule?
Answer: 0%

Question: What about the visual damage ([5]; population LM-NTSR-2 (non-target-site resistance), 240 g/ha) of the same molecule?
Answer: 0%
